The record followed here is patent US9695155B2, “Herbicidal substituted pyrimidinyloxy benzene compounds” (E. I. DU PONT DE NEMOURS AND COMPANY, priority 2013, dated 2017).

One experiment concerns johnsongrass. Put plainly: Test C postemergence. Format: in vivo, Sorghum halepense. The method, boiled down:
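Sown in loam/sand → sprayed pre-emergence; or grown to 1–4 leaves in peat mix → sprayed post-emergence. Same solvent/surfactant formulation both ways. Greenhouse 13–15 d. Score 0–100 visual.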

The next experiment concerns Heteranthera limosa. Kind of experiment: Test B flooded paddy test. Format: in vivo. Particulars: Flood, 250 g ai/ha, 0 to 100 scale where 0 is no effect and 100 is complete control. A digest of the protocol: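 Greenhouse flooded-pot test: compounds dosed into 3 cm standing water over 2-leaf plants, flood held constant. Rated visually after 13–15 days on 0–100 (complete control = 100); a dash marks no test result.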

In the next experiment the test system is ragweed. Kind of experiment: Test C postemergence. Format: in vivo, Ambrosia elatior. An excerpt:
(§1) Seeds of plant species selected from blackgrass (Alopecurus myosuroides), Italian ryegrass (Lolium multiflorum), wheat, winter (winter wheat, Triticum aestivum), galium (catchweed bedstraw, Galium aparine), corn (Zea mays), large (Lg) crabgrass (Digitaria sanguinalis), giant foxtail (Setaria faberii), johnsongrass (Sorghum halepense), lambsquarters (Chenopodium album), morningglory (Ipomoea coccinea), yellow nutsedge (Cyperus esculentus), pigweed (Amaranthus retroflexus), ragweed (common ragweed, Ambrosia elatior), soybean (Glycine max), barnyardgrass (Echinochloa crus-galli), oilseed rape (Brassica napus), waterhemp (common waterhemp, Amaranthus rudis), kochia (Kochia scoparia), wild oat (Avena fatua), surinam grass (Brachiaria decumbens), foxtail, green (green foxtail, Setaria viridis), goosegrass (Eleusine indica), bromegrass, downy (downy bromegrass, Bromus tectorum), nightshade (eastern black nightshade, Solanum ptycanthum), cocklebur (common cocklebur, Xanthium strumarium), cupgrass, woolly (woolly cupgrass, Eriochloa villosa), bermudagrass (Cynodon dactylon), sunflower, (common oilseed sunflower, Helianthus annuus), Russian thistle (Salsola kali), and velvetleaf (Abutilon theophrasti) were planted into a blend of loam soil and sand and treated preemergence with test chemicals formulated in a non-phytotoxic solvent mixture which included a surfactant.
(§2) At the same time, plants selected from these crop and weed species and also barley, winter (winter barley, Hordeum vulgare), windgrass (Apera spica-venti), chickweed (common chickweed, Stellaria media), deadnettle (henbit deadnettle, Lamium amplexicaule), and canarygrass (littleseed canarygrass, Phalaris minor) were planted in pots containing Redi-Earth® planting medium (Scotts Company, 14111 Scottslawn Road, Marysville, Ohio 43041) comprising spaghnum peat moss, vermiculite, wetting agent and starter nutrients and treated with postemergence applications of test chemicals formulated in the same manner. Plants ranged in height from 2 to 18 cm (1- to 4-leaf stage) for postemergence treatments. Treated plants and controls were maintained in a greenhouse for 13 to 15 days, after which time all species were compared to controls and visually evaluated. Plant response ratings, summarized in Table C, are based on a scale of 0 to 100 where 0 is no effect and 100 is complete control. A dash (-) response means no test result.

Another experiment has as its system wheat. Put plainly: Test A preemergence. Format: in vivo, Triticum aestivum. The settings on record: for Wheat plant response rating: 0 to 100 scale, 0 no effect, 100 complete control, approx. 10 days. The method, boiled down: (§3)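 Scoring: eye-based comparison with untreated controls, 0 for no effect through 100 for complete control, at about day 10. Treatments: directed soil spray preemergence; foliar spray postemergence on 2–10 cm plants at the one- to two-leaf stage. Medium: loam soil with sand.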

A further experiment concerns galium. Kind of experiment: Test C postemergence. Format: in vivo, Galium aparine.
Text: as §1, §2

Another experiment relates to morningglory. Kind of experiment: Test A postemergence. Format: in vivo, Ipomoea spp. The method, boiled down: as §3
Another experiment has as its system giant foxtail. Put plainly: Test A postemergence. Format: in vivo, Setaria faberii. The method, boiled down:
as §3

Setting [1] is: 31 g ai/ha, postemergence, visual rating, scale 0 to 100 (0 no effect, 100 complete control), 13 to 15 days.
[2] abbreviates: 125 g ai/ha, 0 to 100 scale where 0 is no effect and 100 is complete control.
Setting [3] is: 16 g ai/ha, postemergence, visual rating, scale 0 to 100 (0 no effect, 100 complete control), 13 to 15 days.
Setting [4] is: Postemergence, 31 g ai/ha, scale 0 to 100 (0 no effect, 100 complete control), 13 to 15 days.
Setting [5] is: Postemergence, 62 g ai/ha, scale 0 to 100 (0 no effect, 100 complete control).
Where [6] appears, read: 1000 g ai/ha, 0 to 100 scale, 0 no effect, 100 complete control.
The mark [7] stands for this setting: 500 g ai/ha, 0 to 100 scale where 0 is no effect and 100 is complete control.

SMILES strings stand for the structures.

Regarding `Fc1cccc(Oc2ncc(Cl)cn2)c1-n1cc(Br)cn1` [Compound 178, 2-[2-(4-bromo-1H-pyrazol-1-yl)-3-fluorophenoxy]-5-chloropyrimidine], the “Johnsongrass plant response rating” value with johnsongrass (setting [1]) stood at 5. The pest or weed control at 16 g/ha was 0% in the experiment on johnsongrass (Sorghum halepense, post-emergence, 16 g ai/ha, postemergence, 0 is no effect, 100 is complete control, read-out: Plant response rating (0 to 100), Johnsongrass); 20% in the experiment with ragweed (Ambrosia artemisiifolia, post-emergence, 16 g ai/ha, postemergence, 0 is no effect, 100 is complete control, read-out: Plant response rating (0 to 100), Ragweed); 80% with galium (Galium, post-emergence, 16 g ai/ha, postemergence, 0 is no effect, 100 is complete control, read-out: Plant response rating (0 to 100), Galium). Also, the pest or weed control at 125 g/ha in the experiment on johnsongrass (Sorghum halepense, post-emergence, 125 g ai/ha, postemergence, visual rating, scale 0 to 100 (0 no effect, 100 complete control), read-out: Plant response rating, Johnsongrass) was 35%; in the experiment on ragweed (Ambrosia artemisiifolia, post-emergence, 125 g ai/ha, postemergence, visual rating, scale 0 to 100 (0 no effect, 100 complete control), read-out: Plant response rating, Ragweed) it was 65%; in the experiment on galium (Galium, post-emergence, 125 g ai/ha, postemergence, visual rating, scale 0 to 100 (0 no effect, 100 complete control), read-out: Plant response rating, Galium) it was 98%; in the experiment with giant foxtail (Setaria faberi, post-emergence, 240 h, 125 g ai/ha, 0 to 100 scale where 0 is no effect and 100 is complete control, read-out: Foxtail, Giant plant response rating), 90%. Further, the pest or weed control at 62 g/ha worked out at 15% with johnsongrass (Sorghum halepense, post-emergence, Postemergence, 62 g ai/ha, scale 0 to 100 (0 no effect, 100 complete control), read-out: Plant response rating, Johnsongrass); 30% with ragweed (Ambrosia artemisiifolia, post-emergence, Postemergence, 62 g ai/ha, scale 0 to 100 (0 no effect, 100 complete control), read-out: Plant response rating, Ragweed); 85% with galium (Galium, post-emergence, Postemergence, 62 g ai/ha, scale 0 to 100 (0 no effect, 100 complete control), read-out: Plant response rating, Galium). The pest or weed control at 250 g/ha in the experiment on Heteranthera limosa (Heteranthera limosa, read-out: Plant response rating, Ducksalad) came out at 0%. Besides, the “Ragweed plant response rating” value with ragweed (setting [1]) worked out at 55. For the same compound, the “Wheat plant response rating (0 to 100 scale)” value in the experiment with wheat (125 g ai/ha) turned out to be 0. Also, the plant injury at 500 g/ha with wheat (Triticum aestivum, pre-emergence, 240 h, 500 g ai/ha, 0 to 100 scale where 0 is no effect and 100 is complete control, read-out: Wheat plant response rating) came out at 40%. Moreover, in the experiment on galium (Galium, post-emergence, 31 g ai/ha, postemergence, visual rating, scale 0 to 100 (0 no effect, 100 complete control), 13 to 15 days, read-out: Galium plant response rating), the pest or weed control at 31 g/ha is 75%. In addition, the “Morningglory plant response rating” value with morningglory (setting [2]) worked out at 70. For the same compound, the pest or weed control at 500 g/ha in the experiment with morningglory (Ipomoea, post-emergence, 240 h, 500 g ai/ha, 0 to 100 scale where 0 is no effect and 100 is complete control, read-out: Plant response rating, Morningglory) was found to be 100%; in the experiment with giant foxtail (Setaria faberi, post-emergence, 240 h, 500 g ai/ha, 0 to 100 scale where 0 is no effect and 100 is complete control, read-out: Plant response rating, Foxtail, Giant) it was 100%.
As for `Clc1cnc(Oc2cccc(Br)c2-n2cc(Br)cn2)nc1` [Compound 65], in the experiment on johnsongrass (setting [3]), the “Johnsongrass plant response rating” value came to 5. Also, the “Plant response rating (0 to 100), Johnsongrass” value with johnsongrass (125 g ai/ha, postemergence) is 5. Moreover, the “Plant response rating, Johnsongrass” value in the experiment with johnsongrass (setting [4]) and with johnsongrass (setting [5]) was 5 each time. Also, the “Plant response rating, Ducksalad” value in the experiment with Heteranthera limosa was 95. The “Plant response rating (0 to 100), Ragweed” value in the experiment with ragweed (125 g ai/ha, postemergence) was determined as 35. Moreover, the results for the “Plant response rating, Ragweed” value in the experiment on ragweed (setting [4]) and with ragweed (setting [5]) were 5 and 25, respectively. For the same compound, the “Wheat plant response rating” value with wheat (1000 g ai/ha) amounted to 30. Further, in the experiment with galium (setting [3]), the “Galium plant response rating” value stood at 100. Moreover, in the experiment on galium (125 g ai/ha, postemergence), the “Plant response rating (0 to 100), Galium” value is listed as 98. Further, the “Plant response rating, Galium” value in the experiment with galium (setting [4]) was found to be 50; with galium (setting [5]), 85. Moreover, in the experiment with morningglory (setting [6]), the “Plant response rating, Morningglory” value is on record as 100. The “Plant response rating, Foxtail, Giant” value in the experiment on giant foxtail (setting [6]) is given as 100.
As to `N#Cc1cccc(Oc2ncc(Cl)cn2)c1-n1cnc(Br)c1` [Compound 74], the “Plant response rating (0 to 100), Johnsongrass” value amounted to 25 in the experiment on johnsongrass (125 g ai/ha, postemergence) and 25 in the experiment with johnsongrass (250 g ai/ha, postemergence). In the experiment on johnsongrass (setting [5]), the “Plant response rating, Johnsongrass” value is 0. Also, the “Plant response rating, Ducksalad” value with Heteranthera limosa was determined as 40. For the same compound, the “Plant response rating (0 to 100), Ragweed” value in the experiment on ragweed (125 g ai/ha, postemergence) turned out to be 40; in the experiment on ragweed (250 g ai/ha, postemergence), 60. In addition, the “Plant response rating, Ragweed” value with ragweed (setting [4]) and in the experiment on ragweed (setting [5]) was 40 throughout. Moreover, in the experiment with wheat (setting [2]), the “Plant response rating, Wheat” value turned out to be 0. For the same compound, in the experiment with wheat (500 g ai/ha), the “Wheat plant response rating” value stood at 40. The “Plant response rating (0 to 100), Galium” value in the experiment with galium (125 g ai/ha, postemergence) is reported as 65; with galium (250 g ai/ha, postemergence), 65. For the same compound, the “Plant response rating, Galium” value with galium (setting [4]) stood at 40; in the experiment on galium (setting [5]) it was 55. Moreover, the “Plant response rating, Morningglory” value in the experiment with morningglory (setting [2]) came out at 80; in the experiment with morningglory (setting [7]), 100. For the same compound, the entries for the “Plant response rating, Foxtail, Giant” value in the experiment on giant foxtail (setting [2]) and in the experiment on giant foxtail (setting [7]) were 80 and 90, respectively.
